# According to patent US20100210539A1, “USE OF PEPTIDE LL-37 AS A THERAPEUTIC AGENT” (priority 2007, published 2010):
# Key:
# [1] = system: HCMV strain AD169 in MRC-5 cells; test: HCMV plaque reduction assay; conditions: HCMV AD169 in MRC-5 cells; peptide 10 micrograms per ml; 7-10 days
# [2] = system: MRC-5 cells; conditions: human, 6 days
# [3] = system: HepG2-2.2.15 cells; conditions: peptide 10 micrograms per ml, dye uptake assay
# [4] = system: Methicillin Resistant Staphylococcus Aureus (MRSA); conditions: 5 micrograms per ml
# [5] = system: Pseudomonas aeruginosa; conditions: 5 micrograms per ml
# [6] = Cytotoxicity in MRC-5 cells (CellTiter 96); conditions: human, MRC-5 cells (embryonal lung fibroblasts)
# [7] = system: Streptococcus pneumoniae; conditions: 5 micrograms per ml
# [8] = in vitro; conditions: human
# [9] = in vitro; conditions: human, CEM-SS cells
# [10] = system: CEM-SS cells; conditions: peptide 10 micrograms per ml, MTS
# [11] = system: HIV-1IIIB in CEM-SS cells; test: HIV-1 antiviral assay, CPE reduction (MTS); conditions: peptide 10 micrograms per ml, 6 days post-infection
compound,measurement,setting,value
Nc1nc(O)c2ncn(COC(CO)CO)c2n1 [Ganciclovir],% plaque reduction,[1],100%
same,% Cell viability,[2],100%
"Nc1ccn([C@@H]2CS[C@H](CO)O2)c(=O)n1 [3TC, Lamivudine]",% Cell viability,[3],95.8%
CC[C@H](C)[C@H](NC(=O)[C@H](CCCCN)NC(=O)[C@H](CCC(=O)O)NC(=O)[C@H](CCCCN)NC(=O)[C@H](CO)NC(=O)[C@H](CCCCN)NC(=O)[C@H](CCCNC(=N)N)NC(=O)[C@H](Cc1ccccc1)NC(=O)[C@H](Cc1ccccc1)NC(=O)[C@H](CC(=O)O)NC(=O)CNC(=O)[C@H](CC(C)C)NC(=O)[C@@H](N)CC(C)C)C(=O)NCC(=O)N[C@@H](CCCCN)C(=O)N[C@@H](CCC(=O)O)C(=O)N[C@@H](Cc1ccccc1)C(=O)N[C@@H](CCCCN)C(=O)N[C@@H](CCCNC(=N)N)C(=O)N[C@H](C(=O)N[C@H](C(=O)N[C@@H](CCC(N)=O)C(=O)N[C@@H](CCCNC(=N)N)C(=O)N[C@H](C(=O)N[C@@H](CCCCN)C(=O)N[C@@H](CC(=O)O)C(=O)N[C@@H](Cc1ccccc1)C(=O)N[C@@H](CC(C)C)C(=O)N[C@@H](CCCNC(=N)N)C(=O)N[C@@H](CC(N)=O)C(=O)N[C@@H](CC(C)C)C(=O)N[C@H](C(=O)N1CCC[C@H]1C(=O)N[C@@H](CCCNC(=N)N)C(=O)N[C@H](C(=O)N[C@@H](CCC(=O)O)C(=O)N[C@@H](CO)C(N)=O)[C@@H](C)O)C(C)C)[C@@H](C)CC)C(C)C)[C@@H](C)CC [LL-37],% inhibition,[4],0.0%
same,% inhibition,[5],0.0%
same,viability at 144 h,[6],100%
same,% inhibition,[7],0.0%
same,"viability at 144 h, 10 micrograms per ml",[8],100%
same,viability at 10 micrograms per ml,[9],86.4%
Cc1cn([C@H]2C[C@H](N=[N+]=[N-])[C@@H](CO)O2)c(=O)[nH]c1=O [AZT],% Cell viability,[10],97%
same,% CPE reduction in HIV-1 infected CEM-SS cells,[11],99%
CC(C)(C)NC(=O)[C@@H]1CN(Cc2cccnc2)CCN1C[C@@H](O)C[C@@H](Cc1ccccc1)C(=O)N[C@H]1c2ccccc2C[C@H]1O [Indinavir],% CPE reduction in HIV-1 infected CEM-SS cells,[11],100%
